One block for each compound: values may come before it.
Tests used:
[1] = biological target: T1, Dual specificity mitogen-activated protein kinase kinase 4 (Homo sapiens) (UniProt P45985); experiment: Inhibition of wild type recombinant human MEK4 (S84 to D399 residues) at 1 uM relative to control
T1 sequence (whole entry): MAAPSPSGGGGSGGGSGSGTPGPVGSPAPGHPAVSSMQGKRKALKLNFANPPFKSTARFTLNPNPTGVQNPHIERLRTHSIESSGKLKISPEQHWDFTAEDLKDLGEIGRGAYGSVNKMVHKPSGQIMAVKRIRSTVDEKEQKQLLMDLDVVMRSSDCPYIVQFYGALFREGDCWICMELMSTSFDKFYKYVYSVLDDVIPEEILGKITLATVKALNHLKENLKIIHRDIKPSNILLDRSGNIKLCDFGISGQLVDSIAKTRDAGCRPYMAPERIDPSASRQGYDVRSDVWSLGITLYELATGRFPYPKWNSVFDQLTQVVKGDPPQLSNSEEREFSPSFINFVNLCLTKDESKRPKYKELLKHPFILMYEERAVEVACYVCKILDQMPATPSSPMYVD

[2] = biological target: Aurora kinase B (Homo sapiens) (UniProt Q96GD4); experiment: Inhibition of N- terminal GST-tagged/His6-tagged human recombinant full length Aurora kinase B ([…]) expressed in baculovirus sf21 cells at 1 uM relative to control
Sequence of Aurora kinase B (Homo sapiens) (Q96GD4 whole entry, the tested form may be a part): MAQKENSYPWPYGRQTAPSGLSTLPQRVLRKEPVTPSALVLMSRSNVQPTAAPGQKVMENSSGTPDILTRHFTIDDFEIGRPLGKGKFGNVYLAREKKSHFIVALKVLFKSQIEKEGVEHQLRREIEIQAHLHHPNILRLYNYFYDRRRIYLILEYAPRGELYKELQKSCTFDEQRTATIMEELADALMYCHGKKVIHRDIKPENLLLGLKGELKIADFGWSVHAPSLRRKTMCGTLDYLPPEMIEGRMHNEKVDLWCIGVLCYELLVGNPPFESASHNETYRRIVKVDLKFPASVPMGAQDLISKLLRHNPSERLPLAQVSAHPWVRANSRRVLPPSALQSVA

[3] = biological target: Leucine-rich repeat serine/threonine-protein kinase 2 (Homo sapiens) (UniProt Q5S007); experiment: Inhibition of wild type full length recombinant human LRRK2 (H970 to E2527 residues) at 1 uM relative to control
Sequence of Leucine-rich repeat serine/threonine-protein kinase 2 (Homo sapiens) (Q5S007 whole entry, the tested form may be a part): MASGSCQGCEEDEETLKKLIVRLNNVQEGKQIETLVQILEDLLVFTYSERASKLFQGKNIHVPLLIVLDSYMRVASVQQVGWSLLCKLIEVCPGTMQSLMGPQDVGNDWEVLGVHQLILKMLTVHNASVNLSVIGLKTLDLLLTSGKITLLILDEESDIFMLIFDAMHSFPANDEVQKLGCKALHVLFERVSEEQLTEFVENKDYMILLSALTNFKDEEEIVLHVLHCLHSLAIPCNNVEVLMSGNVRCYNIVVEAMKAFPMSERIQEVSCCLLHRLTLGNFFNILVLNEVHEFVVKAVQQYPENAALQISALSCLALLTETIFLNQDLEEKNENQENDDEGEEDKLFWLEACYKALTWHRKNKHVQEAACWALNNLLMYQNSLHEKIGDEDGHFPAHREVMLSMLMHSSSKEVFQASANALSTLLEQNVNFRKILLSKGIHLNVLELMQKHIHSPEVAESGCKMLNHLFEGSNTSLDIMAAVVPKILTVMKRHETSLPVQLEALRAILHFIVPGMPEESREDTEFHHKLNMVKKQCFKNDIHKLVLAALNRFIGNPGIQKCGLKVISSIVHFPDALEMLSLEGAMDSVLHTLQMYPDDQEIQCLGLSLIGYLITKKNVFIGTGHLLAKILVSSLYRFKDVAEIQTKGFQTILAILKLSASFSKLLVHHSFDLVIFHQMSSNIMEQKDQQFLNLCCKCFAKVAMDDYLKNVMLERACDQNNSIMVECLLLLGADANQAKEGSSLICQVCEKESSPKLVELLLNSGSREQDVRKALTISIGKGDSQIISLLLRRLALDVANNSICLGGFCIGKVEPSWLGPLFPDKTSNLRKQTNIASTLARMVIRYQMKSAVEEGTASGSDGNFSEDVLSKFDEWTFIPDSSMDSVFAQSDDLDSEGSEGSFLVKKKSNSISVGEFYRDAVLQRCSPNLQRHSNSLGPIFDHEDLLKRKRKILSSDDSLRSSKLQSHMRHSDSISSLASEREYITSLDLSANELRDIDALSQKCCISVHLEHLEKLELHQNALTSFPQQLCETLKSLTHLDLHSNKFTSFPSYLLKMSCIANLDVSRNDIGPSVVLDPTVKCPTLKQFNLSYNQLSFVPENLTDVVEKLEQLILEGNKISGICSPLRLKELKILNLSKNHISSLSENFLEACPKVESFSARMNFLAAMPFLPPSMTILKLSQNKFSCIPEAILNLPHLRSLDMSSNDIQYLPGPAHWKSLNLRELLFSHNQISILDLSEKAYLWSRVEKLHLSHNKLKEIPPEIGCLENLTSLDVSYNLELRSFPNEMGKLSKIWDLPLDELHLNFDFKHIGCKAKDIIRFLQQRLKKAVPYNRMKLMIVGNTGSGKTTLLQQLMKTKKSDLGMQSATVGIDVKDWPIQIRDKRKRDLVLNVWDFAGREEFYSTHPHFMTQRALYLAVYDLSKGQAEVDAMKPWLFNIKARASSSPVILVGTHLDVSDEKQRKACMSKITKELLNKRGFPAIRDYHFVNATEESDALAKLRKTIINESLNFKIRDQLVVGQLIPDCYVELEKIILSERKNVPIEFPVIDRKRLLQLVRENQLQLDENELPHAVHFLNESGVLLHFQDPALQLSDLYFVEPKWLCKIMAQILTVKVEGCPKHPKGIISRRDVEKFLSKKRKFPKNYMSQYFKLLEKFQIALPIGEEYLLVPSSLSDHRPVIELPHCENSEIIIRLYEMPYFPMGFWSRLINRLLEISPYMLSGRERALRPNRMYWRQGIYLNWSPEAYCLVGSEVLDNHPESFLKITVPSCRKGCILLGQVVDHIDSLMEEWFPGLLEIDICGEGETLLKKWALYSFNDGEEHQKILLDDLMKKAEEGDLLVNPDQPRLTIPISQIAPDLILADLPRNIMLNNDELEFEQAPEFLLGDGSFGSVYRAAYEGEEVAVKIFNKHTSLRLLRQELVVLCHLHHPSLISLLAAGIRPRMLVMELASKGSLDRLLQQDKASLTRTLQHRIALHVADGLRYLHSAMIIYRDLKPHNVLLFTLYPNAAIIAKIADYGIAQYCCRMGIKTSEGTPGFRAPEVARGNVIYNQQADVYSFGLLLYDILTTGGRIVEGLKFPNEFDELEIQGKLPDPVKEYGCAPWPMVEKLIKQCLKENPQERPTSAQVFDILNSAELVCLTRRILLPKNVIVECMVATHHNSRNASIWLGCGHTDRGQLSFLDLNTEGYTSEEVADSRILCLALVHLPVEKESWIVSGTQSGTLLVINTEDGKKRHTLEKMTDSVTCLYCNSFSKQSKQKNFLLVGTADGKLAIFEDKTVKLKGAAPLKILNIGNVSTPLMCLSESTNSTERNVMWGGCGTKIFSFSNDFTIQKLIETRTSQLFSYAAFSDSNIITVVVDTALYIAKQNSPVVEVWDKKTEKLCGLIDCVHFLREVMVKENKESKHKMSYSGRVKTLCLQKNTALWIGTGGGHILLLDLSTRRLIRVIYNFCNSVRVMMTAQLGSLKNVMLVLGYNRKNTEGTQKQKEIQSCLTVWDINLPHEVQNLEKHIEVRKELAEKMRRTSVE

[4] = biological target: T2, Dual specificity mitogen-activated protein kinase kinase 7 (Homo sapiens, UniProt O14733); experiment: Inhibition of MEK7 (unknown origin)
T2 sequence (O14733 whole entry): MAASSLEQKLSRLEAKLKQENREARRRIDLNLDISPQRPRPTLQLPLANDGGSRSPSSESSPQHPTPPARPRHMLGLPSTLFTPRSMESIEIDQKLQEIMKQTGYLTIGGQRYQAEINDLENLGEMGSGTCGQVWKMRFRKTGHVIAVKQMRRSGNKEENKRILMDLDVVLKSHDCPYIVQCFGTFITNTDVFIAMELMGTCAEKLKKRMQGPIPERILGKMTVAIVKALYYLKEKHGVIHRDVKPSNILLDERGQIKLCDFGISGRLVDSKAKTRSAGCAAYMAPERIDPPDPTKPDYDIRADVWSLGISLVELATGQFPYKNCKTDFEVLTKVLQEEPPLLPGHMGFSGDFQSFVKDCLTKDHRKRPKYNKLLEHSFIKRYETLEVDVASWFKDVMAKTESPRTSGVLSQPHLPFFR

Homo sapiens [5] = species on record: Homo sapiens; experiment: Selectivity ratio of IC50 for CDC25A (unknown origin) to IC50 for MEK7 (unknown origin)
Homo sapiens [6] = species on record: Homo sapiens; experiment: Selectivity ratio of IC50 for CDC25B (unknown origin) to IC50 for MEK7 (unknown origin)
[7] = biological target: T3, Dual specificity mitogen-activated protein kinase kinase 6 (Homo sapiens, UniProt P52564); experiment: Inhibition of MEK6 (unknown origin)
T3 sequence (P52564 whole entry): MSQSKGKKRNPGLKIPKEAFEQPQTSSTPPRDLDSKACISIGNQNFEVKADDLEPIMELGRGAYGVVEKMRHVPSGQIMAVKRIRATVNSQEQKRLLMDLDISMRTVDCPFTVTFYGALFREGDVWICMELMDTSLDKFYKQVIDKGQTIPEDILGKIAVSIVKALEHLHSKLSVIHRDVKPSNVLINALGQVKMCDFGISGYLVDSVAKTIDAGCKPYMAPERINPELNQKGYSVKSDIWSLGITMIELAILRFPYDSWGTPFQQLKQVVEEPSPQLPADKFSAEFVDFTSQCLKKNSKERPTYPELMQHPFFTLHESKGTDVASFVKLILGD

Homo sapiens [8] = species on record: Homo sapiens; experiment: Selectivity ratio of IC50 for MEK2 (unknown origin) to IC50 for MEK6 (unknown origin)
Homo sapiens [9] = species on record: Homo sapiens; experiment: Selectivity ratio of IC50 for MEK1 (unknown origin) to IC50 for MEK6 (unknown origin)
Homo sapiens [10] = species on record: Homo sapiens; experiment: Selectivity ratio of IC50 for MEK4 (unknown origin) to IC50 for MEK6 (unknown origin)
Homo sapiens [11] = species on record: Homo sapiens; experiment: Selectivity ratio of IC50 for MEK3 (unknown origin) to IC50 for MEK6 (unknown origin)
Homo sapiens [12] = species on record: Homo sapiens; experiment: Selectivity ratio of IC50 for TGFbetaR1 (unknown origin) to IC50 for MEK5 (unknown origin)
Homo sapiens [13] = species on record: Homo sapiens; experiment: Selectivity ratio of IC50 for ERK5 (unknown origin) to IC50 for MEK5 (unknown origin)
[14] = biological target: T4, Tyrosine-protein kinase JAK3 (Homo sapiens) (UniProt P52333); experiment: Inhibition of recombinant human N-terminal His6-tagged JAK3 (781 to end residues) expressed in baculovirus infected Sf21 cells at 1 uM relative to control
T4 sequence (whole entry): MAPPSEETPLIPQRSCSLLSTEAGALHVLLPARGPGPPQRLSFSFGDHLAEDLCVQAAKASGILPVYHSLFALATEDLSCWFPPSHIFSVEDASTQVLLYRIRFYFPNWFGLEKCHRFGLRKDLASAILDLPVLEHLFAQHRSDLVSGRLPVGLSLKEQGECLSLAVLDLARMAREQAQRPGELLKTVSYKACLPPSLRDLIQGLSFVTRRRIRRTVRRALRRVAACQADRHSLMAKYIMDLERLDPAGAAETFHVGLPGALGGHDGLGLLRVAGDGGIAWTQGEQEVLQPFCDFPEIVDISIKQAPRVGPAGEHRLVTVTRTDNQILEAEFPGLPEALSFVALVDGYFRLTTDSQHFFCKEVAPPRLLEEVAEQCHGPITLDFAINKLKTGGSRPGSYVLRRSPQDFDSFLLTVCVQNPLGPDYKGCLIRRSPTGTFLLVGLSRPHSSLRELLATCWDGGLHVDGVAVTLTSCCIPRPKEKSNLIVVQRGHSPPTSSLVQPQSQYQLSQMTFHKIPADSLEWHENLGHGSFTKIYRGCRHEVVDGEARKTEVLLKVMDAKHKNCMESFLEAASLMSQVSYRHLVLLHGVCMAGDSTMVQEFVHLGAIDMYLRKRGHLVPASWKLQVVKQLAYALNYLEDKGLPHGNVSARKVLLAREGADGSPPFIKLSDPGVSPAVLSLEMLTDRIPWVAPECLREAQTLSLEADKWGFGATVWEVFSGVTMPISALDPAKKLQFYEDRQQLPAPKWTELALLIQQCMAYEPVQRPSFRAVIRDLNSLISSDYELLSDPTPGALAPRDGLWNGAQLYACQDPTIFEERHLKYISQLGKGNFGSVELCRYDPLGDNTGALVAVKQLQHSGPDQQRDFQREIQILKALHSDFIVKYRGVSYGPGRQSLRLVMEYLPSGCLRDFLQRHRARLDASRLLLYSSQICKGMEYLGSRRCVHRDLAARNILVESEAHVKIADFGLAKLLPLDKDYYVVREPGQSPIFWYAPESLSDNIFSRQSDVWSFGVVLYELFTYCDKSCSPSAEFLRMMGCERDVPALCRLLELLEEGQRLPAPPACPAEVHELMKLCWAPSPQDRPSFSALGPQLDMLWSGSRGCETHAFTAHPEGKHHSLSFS

[15] = Inhibition of flag-tagged MEK4 Q253Y/I258V/R262M mutant (unknown origin) expressed in HEK-293T cells after 20 mins in presence of [32P]-ATP; assay type: cell-based, Homo sapiens
[16] = Inhibition of HA-tagged MEK7 R283Y/K288V/R292M mutant (unknown origin) expressed in HEK-293T cells after 20 mins in presence of [32P]-ATP; assay type: cell-based, Homo sapiens

inhibition [1]: > 75% | inhibition [2]: > 75% | inhibition [3]: > 75%
Structure (SMILES): C=CC(=O)Nc1cccc(-c2n[nH]c3cc(C)ccc23)c1

IC50 [4]: 0.23 µM
Structure (SMILES): O=C(O)CCSC1=CC(=O)c2ccccc2C1=O

IC50 [4]: 1.9 µM | Ratio IC50 (Homo sapiens [5]): 17 | Ratio IC50 (Homo sapiens [6]): 12
Structure (SMILES): O=C(O)c1cccc(NC2=CC(=O)c3ccccc3C2=O)c1

IC50 [7]: 4.5 µM | Ratio IC50 (Homo sapiens [8]): 9 | Ratio IC50 (Homo sapiens [9]): 12 | Ratio IC50 (Homo sapiens [10]): 3 | Ratio IC50 (Homo sapiens [11]): 3
Structure (SMILES): C=C(CC)C(=O)c1ccc(OCC(=O)O)c(Cl)c1Cl [ETHACRYNIC ACID]

Ratio IC50 (Homo sapiens [12]): 580 | Ratio IC50 (Homo sapiens [13]): 60
Structure (SMILES): CN(C)Cc1cccc(N/C(=C2\C(=O)Nc3cc(C(N)=O)ccc32)c2ccccc2)c1

inhibition [1]: > 75% | inhibition [2]: > 75% | inhibition [3]: > 75% | inhibition [14]: > 75%
Structure (SMILES): C=CC(=O)Nc1cccc(-c2n[nH]c3ccccc23)c1

IC50 [15]: 6 µM | IC50 [16]: 10 µM
Structure (SMILES): COc1ccc2c(Cc3ccc(O[Si](C)(C)C(C)(C)C)cc3)c3[n+](cc2c1OC)CCc1ccccc1-3
